# Where “and” joins values, the source holds several entries; their conditions need not be identical. Identical values can stand only once. Counter-ions that a name gives are not always drawn. Like-named read-outs stand apart in the source and are kept apart here.
# Experiments:
# [1] = tested on: STZ induced diabetic rats; experiment: In vivo oral glucose tolerance study in nSTZ induced diabetic rats, i.v. drug; details: 8 mg/ml/kg i.v.
# Method: In Vivo Oral Glucose Tolerance Studies
# The anti-hyperglycemic effect of compound no. 95 (8 mg/ml/kg, i.v) after an oral glucose load of 1 gm/kg was studied in STZ induced diabetic rats (modified method of Balkan et al 1999).
# Animals: Male STZ induced diabetic rats aged 10-12 weeks and weighing between 200-250 gm were used for the study. These rats were treated with streptozotocin administered intraperitoneally on the day of birth at a dose of 90 mg/kg. They were maintained under standard conditions till the age of 10-12 weeks when they were used for the study.
# Materials: Glucose solution (1 gm/4 ml of saline), Diethyl ether compound no. 95 (8 mg/ml/kg), vehicle (1 ml/kg), Heparinized saline (100 IU/ml), glucometer and strips
# Method: Animals were divided into two groups
# Group I: 8 hours fasted rats were treated with compound no. 95 vehicle (1 ml/kg, i.v.) 5 min before administration of glucose load.
# Group II: 8 hours fasted rats were treated with compound no. 95 (8 mg/ml/kg, i.v) 5 min before administration of glucose load.
# In both groups, blood samples were taken before administration of vehicle/compound no. 95 and glucose load for blood glucose estimation. Blood glucose level before administration of compound no. 95 or its vehicle was considered as −5 min reading. Blood glucose level before administration of glucose was considered as 0 min reading.
# After 10, 20, 30, 45, 60, 75, 90, 120, 150 and 180 min of glucose administration, blood glucose level was estimated by the glucose oxidase method using a LifeScan glucometer (Ca, USA). Blood glucose level at various time points was subtracted from the basal (0 min) reading. This was done to avoid changes in AUC because of variation in basal glucose level. The glucose excursion at various time points was plotted against time and the AUC was calculated.
# The activity of compound no. 95 was expressed as % reduction in AUC as compared with that of its vehicle.
# [2] = In-vitro free radical scavenging activity using DPPH free radical; details: 30° C., 30 minutes, 515 nm
# Text: Free Radical Scavenging Activity:
# To determine the in-vitro free radical scavenging activity of compounds of general formula-I on 2,2,-diphenyl-1-picrylhydrazyl (DPPH)radical (Ref: W. Brand-Williams, M. E. Cuvelier, C. Berset “Use of a free radical method to evaluate antioxidant activity”, Lebensm.- Wiss.u.Technol.,1995,28,Nr.1:25-30).
# To evaluate the free radical scavenging activity of compounds they are allowed to react with stable radical DPPH*. In its radical form, DPPH* absorbed at the characteristic wave length of 515 nm, but upon reduction by an antioxidant or radical scavenger (AH), the absorption disappears.
# 10^−4M solution of DPPH* was prepared in methanol.
# Various concentrations (10 mM, 1 mM, 0.5 mM, 0.25 mM and 0.125 mM) of drug solutions were prepared in methanol.
# 900 μl of DPPH radical solution was added to an eppendorf tube. To it was added 100 μl of methanol.
# 900 μl of DPPH radical solution was added to an eppendorf tube. To it was added 100 μl of various concentrations of drug solutions in methanol.
# The absorbance of control and test samples was recorded after incubation at 30° C. for 30 minutes, at 515 nm taking methanol as blank.
# The percent antioxidant activity was calculated according to the formula:
# % Antioxidant activity=100−[O.D of test sample/O.D of control*100]
# [3] = tested on: nOSTZ diabetic rats; experiment: Oral glucose tolerance test in neonatal streptozotocin-induced (nOSTZ) diabetic rats, oral drug; type: in vivo, Wistar rats; details: 22 mg/kg oral; for percent change in blood glucose from basal glucose level / peak glucose levels (% from basal level): glucose load 1 g/kg; for peak glucose levels (% from basal level): significantly lower than vehicle (157.07±14.17%); for glucose tolerance (in words): nOSTZ rats
# Text: Effect of Compound no. 140 and Compound no. 142 on Oral Glucose Tolerance in Neonatel Streptozotocin-Induced (nO STZ) Diabetic Rats
# Principle of Glucose Estimation by Glucometer (One Touch, Lifescan, USA)
# Glucose and oxygen react in the presence of glucose oxidase yielding gluconic acid and hydrogen peroxide. Hydrogen peroxide subsequently oxidizes the dyes in a reaction mediated by Peroxidase producing a blue colored form of the dyes (Marks and Dawson, 1965). The intensity of the blue color is proportional to the glucose concentration in the sample.
# Wistar rats were made type 2 diabetic by injecting streptozotocin (STZ) at the dose of 90 mg/kg intraperitoneally on the day of birth (nOSTZ) to male pups (Portha et al, 2001). Animals showing overnight fasted blood glucose levels between 7-10 mM at the age of 10-12 weeks were used for the study. On the day of the experiment, animals were fasted overnight with free access to water.
# Oral Glucose Tolerance Test (OGTT) (Pospisilik et al, 2002)
# External jugular vein of overnight fasted nOSTZ rats was cannulated using polyethylene cannula with heparinized (100 IU/ml) saline under ether anesthesia and exteriorized at the back of the neck. After the animal was recovered from the anesthesia, blood sample was drawn as marked as ‘−5 min’ sample and drug formulation (in 0.5% sodium caboxymethyl cellulose, Na-CMC) was administered orally at the volume of 1 ml/kg body weight.
# 5 min after drug administration, blood sample was drawn as ‘0 min’ sample and glucose load at the dose of 1 g/kg body weight was administered orally. Blood samples were drawn subsequently at 5, 10, 15, 20, 30, 45, 60, 75, 90, 120, 180, 240 and 360 min time interval. Blood glucose is measured using glucometer.
# Animals were divided into three groups: 1. Vehicle (0.5% Na-CMC) treated, 2. Compound no. 140 treated (22 mg/kg) and 3. Compound no. 142 treated (22 mg/kg).
# Change in blood glucose at various time points was measured as percent increase or decrease from basal glucose level. Area under the curve (AUC) for glucose was calculated using WinNonlin software.
# [4] = biological target: T1, Porcine DPP-IV (Sus scrofa, UniProt P22411); experiment: Assay of DPP-IV enzyme inhibitory activity (spectrophotometric, Gly-Pro-pNA cleavage); type: biochemical; details: Porcine DPP-IV, Gly-Pro-pNA substrate, 30° C., mean ± SD of three experiments except compound Nos. 133 & 139, read-out: IC50 (μM) Mean ± SD, inhibitory activity on DPP-IV enzyme activity
# T1 construct: purchased Sigma-Aldrich Germany
# T1 sequence (P22411 whole entry): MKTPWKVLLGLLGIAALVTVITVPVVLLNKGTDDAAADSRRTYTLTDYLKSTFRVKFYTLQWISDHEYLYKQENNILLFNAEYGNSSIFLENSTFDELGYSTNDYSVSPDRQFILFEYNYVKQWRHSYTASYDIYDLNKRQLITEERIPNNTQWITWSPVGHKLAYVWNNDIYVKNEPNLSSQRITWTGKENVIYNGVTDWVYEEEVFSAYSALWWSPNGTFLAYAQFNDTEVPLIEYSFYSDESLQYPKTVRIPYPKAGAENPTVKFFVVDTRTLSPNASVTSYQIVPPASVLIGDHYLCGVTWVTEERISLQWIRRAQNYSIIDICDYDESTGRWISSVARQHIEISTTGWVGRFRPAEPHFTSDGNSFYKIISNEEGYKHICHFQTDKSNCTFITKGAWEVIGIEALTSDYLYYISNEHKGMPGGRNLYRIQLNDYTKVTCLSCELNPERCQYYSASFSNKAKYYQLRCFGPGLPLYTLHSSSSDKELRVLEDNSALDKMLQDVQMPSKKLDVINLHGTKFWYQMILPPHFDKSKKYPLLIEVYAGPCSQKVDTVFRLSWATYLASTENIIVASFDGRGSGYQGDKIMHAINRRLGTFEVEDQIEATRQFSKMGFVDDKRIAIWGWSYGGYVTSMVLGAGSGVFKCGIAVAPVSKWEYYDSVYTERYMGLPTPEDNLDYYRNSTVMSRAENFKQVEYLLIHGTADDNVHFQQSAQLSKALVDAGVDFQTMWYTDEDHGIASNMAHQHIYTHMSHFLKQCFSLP
# [5] = in vivo; cited from earlier work
# [6] = tested on: DPP-IV; details: in vivo; cited from earlier work
# [7] = tested on: zucker fatty rats; details: cited from earlier work
compound,measurement,setting,value
N#CC1CSCN1C(=O)CN(N)C1CCN(CC(=O)Nc2ccc(Cl)cn2)CC1 (stereo not drawn) [Compound No. 95],Glucose excursions after a 1 gm/kg glucose load,[1]; 0 min,0.0
same,AUC values mM * min of glucose excursion,"[1]; 5 min before 1 gm/kg glucose load, Mean ± SD, P < 0.05 vs vehicle",413.3±134.6 mM * min and 413.3 ± 134.6a mM * min
same,effect on hyperglycemia (in words),[1]; nSTZ induced diabetic rats,controls hyperglycemia and brings the glucose levels to normoglycemic range
same,Glucose excursions after a 1 gm/kg glucose load,[1]; 10 min,3.9
same,Glucose excursions after a 1 gm/kg glucose load,[1]; 20 min,5.9
same,Glucose excursions after a 1 gm/kg glucose load,[1]; 30 min,7.8
same,Glucose excursions after a 1 gm/kg glucose load,[1]; 45 min,6.2
same,Glucose excursions after a 1 gm/kg glucose load,[1]; 60 min,4.1
same,Glucose excursions after a 1 gm/kg glucose load,[1]; 75 min,2.7
same,Glucose excursions after a 1 gm/kg glucose load,[1]; 90 min,0.5
same,Glucose excursions after a 1 gm/kg glucose load,[1]; 120 min,−2.8
same,Glucose excursions after a 1 gm/kg glucose load,[1]; 150 min,−4.1
same,Glucose excursions after a 1 gm/kg glucose load,[1]; 180 min,−3.9
same,"% Activity (antioxidant, DPPH)","[2]; Concentration 12.5 μM, 12.5 µM",22.06%
same,"% Activity (antioxidant, DPPH)","[2]; Concentration 25 μM, 25 µM",36.87%
same,"% Activity (antioxidant, DPPH)","[2]; Concentration 50 μM, 50 µM",44.81%
same,"% Activity (antioxidant, DPPH)","[2]; Concentration 100 μM, 100 µM",65.52%
"N#CC1CSCN1C(=O)CN(N)C1CCN(CC(=O)Nc2ccc(S(N)(=O)=O)cc2)CC1 (stereo not drawn) [compound 142, 3-[1-oxo-2-(1-(1-(2-oxo-2-(4-aminosulphonylphenyl)aminoethyl)piperidin-4-yl))hydrazino]ethyl-4-cyano thiazolidine, dihydrochloride]",percent change in blood glucose from basal glucose level,[3]; 0 min,0.0 ± 0.0%
same,peak glucose levels (% from basal level),[3],87.25±15.61%
same,glucose tolerance (in words),[3],improved glucose tolerance
same,percent change in blood glucose from basal glucose level,[3]; 5 min,9.79 ± 4.13%
same,percent change in blood glucose from basal glucose level,[3]; 10 min,29.41 ± 3.4%
same,percent change in blood glucose from basal glucose level,[3]; 15 min,46.51 ± 5.23%
same,percent change in blood glucose from basal glucose level,[3]; 20 min,56.51 ± 4.33%
same,percent change in blood glucose from basal glucose level,[3]; 30 min,77.93 ± 12.12%
same,percent change in blood glucose from basal glucose level,[3]; 45 min,87.25 ± 15.61%
same,percent change in blood glucose from basal glucose level,[3]; 60 min,67.33 ± 11.49%
same,percent change in blood glucose from basal glucose level,[3]; 90 min,67.45 ± 9.8%
same,percent change in blood glucose from basal glucose level,[3]; 120 min,31.4 ± 8.51%
same,percent change in blood glucose from basal glucose level,[3]; 180 min,−48.05 ± 5.75%
same,percent change in blood glucose from basal glucose level,[3]; 240 min,−58.87 ± 6.10%
same,percent change in blood glucose from basal glucose level,[3]; 360 min,−63.57 ± 4.77%
same,IC50,[4],0.07 ± 0.01 µM
GLP-19-36,apparent half-life in the circulation,[5],4 to 5 min
Cl.N#CC1CSCN1C(=O)N(N)C1CCCCC1 (stereo not drawn),melting point,,166 to 168 °C (dec.)
"N#CC1CCCN1C(=O)C1CNCCN1.O=C(O)C(F)(F)F.O=C(O)C(F)(F)F (stereo not drawn) [Compound No. 1, 2-Cyano-1-(piperazine-2-yl)-carbonyl pyrrolidine bis-trifluoroacetate]",melting point,,126 to 128 °C
same,IC50,[4],47.6 ± 2.72 µM
"Cl.Cl.Cl.N#Cc1ccc(NC(=O)CN2CCC(N(N)CC(=O)N3CSCC3C#N)CC2)nc1 (stereo not drawn) [compound 140, 3-[1-oxo-2-(1-(1-(2-oxo-2-(5-cyanopyridin-2-yl)aminoethyl)piperidin-4-yl))hydrazino]ethyl-4-cyano thiazolidine, trihydrochloride]",percent change in blood glucose from basal glucose level,[3]; 0 min,0.0 ± 0.0%
same,peak glucose levels (% from basal level),[3],99.19±17.87%
same,glucose tolerance (in words),[3],improved glucose tolerance
same,percent change in blood glucose from basal glucose level,[3]; 5 min,21.97 ± 1.14%
same,percent change in blood glucose from basal glucose level,[3]; 10 min,49.11 ± 11.7%
same,percent change in blood glucose from basal glucose level,[3]; 15 min,64.67 ± 10.17%
same,percent change in blood glucose from basal glucose level,[3]; 20 min,69.62 ± 12.73%
same,percent change in blood glucose from basal glucose level,[3]; 30 min,90.29 ± 22.93%
same,percent change in blood glucose from basal glucose level,[3]; 45 min,99.19 ± 17.87%
same,percent change in blood glucose from basal glucose level,[3]; 60 min,82.76 ± 16.22%
same,percent change in blood glucose from basal glucose level,[3]; 90 min,34.3 ± 20.32%
same,percent change in blood glucose from basal glucose level,[3]; 120 min,−21.87 ± 25.68%
same,percent change in blood glucose from basal glucose level,[3]; 180 min,−45.71 ± 18.48%
same,percent change in blood glucose from basal glucose level,[3]; 240 min,−48.6 ± 13.58%
same,percent change in blood glucose from basal glucose level,[3]; 360 min,−49.76 ± 10.31%
same,IC50,[4]; trihydrochloride,0.13 ± 0.03 µM
Cl.N#CC1CCCN1C(=O)N(N)C1CCCCC1 (stereo not drawn),melting point,,160 to 162 °C (dec.)
CC(C)N(N)C(=O)N1CSCC1C#N.Cl (stereo not drawn),melting point,,148 to 150 °C (dec.)
"N#Cc1ccc(NCCNCC(=O)N2CCC[C@H]2C#N)nc1 [NVP-DPP-728, 1-[-2-{(5-cyanopyridin-2-yl)amino}ethylamino]acetyl-2-cyano-(S)-pyrrolidine]",insulin secretion and glucose tolerance (in words),[6],improves insulin secretion and glucose tolerance
CC[C@H](C)[C@H](N)C(=O)N1CCSC1 [Isoleucine thiazolidide],glucose tolerance (in words),[7],improved glucose tolerance
